Like-named read-outs stand apart in the source and are kept apart here.
Experiments:
[1] = very low application dosage
[2] = Pharmacological effect and tolerability of glycine on administration; details: in vivo
[3] = tested on: NMDA receptors (N-methyl-D-aspartate receptors); details: opening of the ion channel induced by glutamate

- uptake into the central nervous system ([1]; application via the mucous membranes, avoiding the first-pass effect): very fast uptake
- uptake into the central nervous system [1]: very quick uptake
- effect on the excitatory NMDA receptors [3]: shows an effect as a co-transmitter
SMILES: NCC(=O)O [Glycine]
- negative effects with other applications of drugs [2]: No negative effects
- time until the preparation acts [2]: 5 to 10 min
- undesired side-effects [2]: have not been proven
- undesired side-effects ([2]; listed as glycine): No undesired side-effects have been established
